Measurements published in patent US20250243196A1, “CITRON KINASE INHIBITORS” (The Cleveland Clinic Foundation, priority 2021, published 2025).

Assays:
CK1ε(h) = CK1ε(h) (Homo sapiens (Human), UniProt P49674); assay: KinaseProfiler panel; assay type: biochemical; parameters: dose or concentration left out as unconfirmed; conditions: activity remaining
IRAK4(h) = IRAK4(h) (Homo sapiens (Human), UniProt Q9NWZ3); assay: KinaseProfiler panel; assay type: biochemical; parameters: dose or concentration left out as unconfirmed; conditions: activity remaining
MSSK1(h) = MSSK1(h) (Homo sapiens (Human), UniProt Q9UPE1); assay: KinaseProfiler panel; assay type: biochemical; conditions: activity remaining
EphB2(h) = EphB2(h) (Homo sapiens (Human), UniProt P29323); assay: KinaseProfiler panel; assay type: biochemical; parameters: dose or concentration left out as unconfirmed; conditions: activity remaining
MAPKAP-K3(h) = MAPKAP-K3(h) (Homo sapiens (Human), UniProt Q16644); assay: KinaseProfiler panel; assay type: biochemical; parameters: dose or concentration left out as unconfirmed; conditions: activity remaining
CRIK(h) = CRIK(h) (Homo sapiens (Human), UniProt O14578); assay: KinaseProfiler panel; assay type: biochemical; parameters: dose or concentration left out as unconfirmed; conditions: activity remaining
Citron kinase = Citron kinase (Homo sapiens (Human), UniProt O14578); assay: Radiometric citron kinase assay (Eurofins Cat #16-040KP); assay type: biochemical; conditions: mean of at least two independent assays; read-out: Radiometric CitK IC50
Outline: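 Radiometric KinaseProfiler format: test compound incubated with kinase, substrate, cofactors and radiolabelled ATP; unreacted ATP washed away and radiolabelled phosphate incorporated into substrate measured. IC50 derived from inhibition of phosphorylation. Values are means of at least two independent assays.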

CLK3(h) = CLK3(h) (Homo sapiens (Human), UniProt P49761); assay: KinaseProfiler panel; assay type: biochemical; parameters: dose or concentration left out as unconfirmed; conditions: activity remaining
DDR1(h) = DDR1(h) (Homo sapiens (Human), UniProt Q08345); assay: KinaseProfiler panel; assay type: biochemical; parameters: dose or concentration left out as unconfirmed; conditions: activity remaining
EphA7(h) = EphA7(h) (Homo sapiens (Human), UniProt Q15375); assay: KinaseProfiler panel; assay type: biochemical; parameters: dose or concentration left out as unconfirmed; conditions: activity remaining
[1] = biological target: NanoLuc-CITK (full-length human CITK) (Homo sapiens (Human), UniProt O14578); assay: NanoBRET intracellular target engagement assay; assay type: cell-based
Experimental: In-cell Kd values were evaluated with a NanoBRET Target Engagement Assay essentially as recommended by the manufacturer (Promega Corporation—for details see https://www.promega.com/resources/technologies/nanoluc-luciferase-enzyme/cellular-target-engagement/).
HEK293T cells were transfected with 5.0 μg/mL sterile NanoLuc-CITK DNA, 5.0 μg/mL Transfection Carrier DNA, and 30 μL/mL FugeneHD® (Promega) in Opti-Mem™ (Thermo) media at a cell density of 250,000 cells/mL. […] 5 μL of the 25× Tracer K10 solution was added to each well. Next, designated inhibitors were prepared from powder as 10 mM DMSO stocks and then further diluted to 10× the final assay concentration in Opti-Mem™. 12-pt dose-response curves were prepared by 3×-serial dilution. […] A 3× Complete Substrate+Inhibitor solution, containing 6 mL of Opti-Mem™, 36 μL of NanoBRET Nano-Glo Substrate, and 12 μL Extracellular NanoLuc Inhibitor was freshly prepared for each plate. 50 μL of the 3× Complete Substrate+Inhibitor solution was added to all wells and the plate was incubated for 2 min with 500 RPM shaking. The bottom of the plates were covered with black plate seals and then measured on a Cytation 5 plate reader (Biotek) with a NanoBRET Filter Cube (Biotek; 450/50 emission & 610LP emission). Background corrected BRET ratios (in mBU) were calculated in Excel and IC50's were subsequently extracted using four-parameter non-linear regression in GraphPad Prism 8.

RIPK2(h) = RIPK2(h) (Homo sapiens (Human), UniProt O43353); assay: KinaseProfiler panel; assay type: biochemical; parameters: dose or concentration left out as unconfirmed; conditions: activity remaining
CaMKIIβ(h) = CaMKIIβ(h) (Homo sapiens (Human), UniProt Q13554); assay: KinaseProfiler panel; assay type: biochemical; parameters: dose or concentration left out as unconfirmed; conditions: activity remaining
STK16(h) = STK16(h) (Homo sapiens (Human), UniProt O75716); assay: KinaseProfiler panel; assay type: biochemical; parameters: dose or concentration left out as unconfirmed; conditions: activity remaining
SRPK2(h) = SRPK2(h) (Homo sapiens (Human), UniProt P78362); assay: KinaseProfiler panel; assay type: biochemical; parameters: dose or concentration left out as unconfirmed; conditions: activity remaining
DNA-PK(h) = DNA-PK(h) (Homo sapiens (Human), UniProt P78527); assay: KinaseProfiler panel; assay type: biochemical; parameters: dose or concentration left out as unconfirmed; conditions: activity remaining
PRKG2(h) = PRKG2(h) (Homo sapiens (Human), UniProt Q13237); assay: KinaseProfiler panel; assay type: biochemical; parameters: dose or concentration left out as unconfirmed; conditions: activity remaining
Ros(h) = Ros(h) (Homo sapiens (Human), UniProt P08922); assay: KinaseProfiler panel; assay type: biochemical; parameters: dose or concentration left out as unconfirmed; conditions: activity remaining
Yes(h) = Yes(h) (Homo sapiens (Human), UniProt P07947); assay: KinaseProfiler panel; assay type: biochemical; parameters: dose or concentration left out as unconfirmed; conditions: activity remaining
JNK3(h) = JNK3(h) (Homo sapiens (Human), UniProt P53779); assay: KinaseProfiler panel; assay type: biochemical; parameters: dose or concentration left out as unconfirmed; conditions: activity remaining
[2] = biological target: PI3 Kinase (p110a/p85a)(h) (Homo sapiens (Human), UniProt P42336); assay: KinaseProfiler panel; assay type: biochemical; parameters: dose or concentration left out as unconfirmed; conditions: activity remaining

NanoLuc-CITK (full-length human CITK), sequence (O14578 other isoform, or with tags, fused parts or gaps): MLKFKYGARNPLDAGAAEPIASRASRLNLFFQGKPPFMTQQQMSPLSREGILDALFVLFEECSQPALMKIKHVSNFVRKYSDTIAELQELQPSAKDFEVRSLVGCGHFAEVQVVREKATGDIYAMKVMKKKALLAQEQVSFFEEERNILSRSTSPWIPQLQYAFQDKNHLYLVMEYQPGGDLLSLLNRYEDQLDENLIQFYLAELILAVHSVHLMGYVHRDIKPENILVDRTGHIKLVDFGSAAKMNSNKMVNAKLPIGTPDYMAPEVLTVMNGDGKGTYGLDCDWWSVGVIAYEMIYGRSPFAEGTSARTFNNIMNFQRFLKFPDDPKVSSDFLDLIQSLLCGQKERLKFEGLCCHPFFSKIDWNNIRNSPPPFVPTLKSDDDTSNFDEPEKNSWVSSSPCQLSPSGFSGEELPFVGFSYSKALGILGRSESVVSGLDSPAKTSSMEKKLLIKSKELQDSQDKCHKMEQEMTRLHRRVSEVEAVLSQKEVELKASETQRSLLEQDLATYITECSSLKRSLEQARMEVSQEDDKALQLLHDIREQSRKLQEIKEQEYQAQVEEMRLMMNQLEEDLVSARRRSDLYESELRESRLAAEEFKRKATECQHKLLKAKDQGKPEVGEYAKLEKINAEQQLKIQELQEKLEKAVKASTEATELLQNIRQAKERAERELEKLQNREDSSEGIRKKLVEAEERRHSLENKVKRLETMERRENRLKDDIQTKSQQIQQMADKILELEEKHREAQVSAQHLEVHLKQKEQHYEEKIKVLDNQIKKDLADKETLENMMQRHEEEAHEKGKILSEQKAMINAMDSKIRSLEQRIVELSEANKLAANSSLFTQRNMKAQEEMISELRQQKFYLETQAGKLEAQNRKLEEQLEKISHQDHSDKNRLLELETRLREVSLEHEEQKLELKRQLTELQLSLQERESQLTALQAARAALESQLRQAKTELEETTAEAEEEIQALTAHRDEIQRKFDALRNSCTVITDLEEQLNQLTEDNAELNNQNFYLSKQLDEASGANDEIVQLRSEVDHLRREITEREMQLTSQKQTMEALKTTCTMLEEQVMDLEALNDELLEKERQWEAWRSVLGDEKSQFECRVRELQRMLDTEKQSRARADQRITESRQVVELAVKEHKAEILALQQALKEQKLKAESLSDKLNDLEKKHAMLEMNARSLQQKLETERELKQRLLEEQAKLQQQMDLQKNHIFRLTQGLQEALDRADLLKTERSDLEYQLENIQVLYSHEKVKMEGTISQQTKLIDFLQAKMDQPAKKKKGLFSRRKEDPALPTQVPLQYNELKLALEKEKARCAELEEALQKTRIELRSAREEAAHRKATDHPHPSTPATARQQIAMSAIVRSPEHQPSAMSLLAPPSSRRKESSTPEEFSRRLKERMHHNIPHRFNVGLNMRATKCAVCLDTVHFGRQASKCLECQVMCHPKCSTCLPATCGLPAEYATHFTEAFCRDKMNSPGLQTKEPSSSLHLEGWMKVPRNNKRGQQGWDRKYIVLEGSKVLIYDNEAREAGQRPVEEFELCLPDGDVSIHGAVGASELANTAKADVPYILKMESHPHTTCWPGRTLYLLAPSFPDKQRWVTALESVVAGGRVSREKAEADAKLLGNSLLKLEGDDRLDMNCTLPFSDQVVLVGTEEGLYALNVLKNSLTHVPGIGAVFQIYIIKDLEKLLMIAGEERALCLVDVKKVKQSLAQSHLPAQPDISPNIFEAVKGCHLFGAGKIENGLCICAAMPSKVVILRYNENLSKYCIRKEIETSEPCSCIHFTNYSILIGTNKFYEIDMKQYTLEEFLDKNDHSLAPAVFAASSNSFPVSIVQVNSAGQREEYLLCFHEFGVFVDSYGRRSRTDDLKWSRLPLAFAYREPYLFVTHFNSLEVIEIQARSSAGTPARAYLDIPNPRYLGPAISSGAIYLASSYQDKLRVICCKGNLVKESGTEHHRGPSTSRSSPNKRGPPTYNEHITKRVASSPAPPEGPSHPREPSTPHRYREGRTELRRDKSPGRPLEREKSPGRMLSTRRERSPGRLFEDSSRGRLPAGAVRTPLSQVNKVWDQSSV
DDR1(h), sequence (Q08345 19-913): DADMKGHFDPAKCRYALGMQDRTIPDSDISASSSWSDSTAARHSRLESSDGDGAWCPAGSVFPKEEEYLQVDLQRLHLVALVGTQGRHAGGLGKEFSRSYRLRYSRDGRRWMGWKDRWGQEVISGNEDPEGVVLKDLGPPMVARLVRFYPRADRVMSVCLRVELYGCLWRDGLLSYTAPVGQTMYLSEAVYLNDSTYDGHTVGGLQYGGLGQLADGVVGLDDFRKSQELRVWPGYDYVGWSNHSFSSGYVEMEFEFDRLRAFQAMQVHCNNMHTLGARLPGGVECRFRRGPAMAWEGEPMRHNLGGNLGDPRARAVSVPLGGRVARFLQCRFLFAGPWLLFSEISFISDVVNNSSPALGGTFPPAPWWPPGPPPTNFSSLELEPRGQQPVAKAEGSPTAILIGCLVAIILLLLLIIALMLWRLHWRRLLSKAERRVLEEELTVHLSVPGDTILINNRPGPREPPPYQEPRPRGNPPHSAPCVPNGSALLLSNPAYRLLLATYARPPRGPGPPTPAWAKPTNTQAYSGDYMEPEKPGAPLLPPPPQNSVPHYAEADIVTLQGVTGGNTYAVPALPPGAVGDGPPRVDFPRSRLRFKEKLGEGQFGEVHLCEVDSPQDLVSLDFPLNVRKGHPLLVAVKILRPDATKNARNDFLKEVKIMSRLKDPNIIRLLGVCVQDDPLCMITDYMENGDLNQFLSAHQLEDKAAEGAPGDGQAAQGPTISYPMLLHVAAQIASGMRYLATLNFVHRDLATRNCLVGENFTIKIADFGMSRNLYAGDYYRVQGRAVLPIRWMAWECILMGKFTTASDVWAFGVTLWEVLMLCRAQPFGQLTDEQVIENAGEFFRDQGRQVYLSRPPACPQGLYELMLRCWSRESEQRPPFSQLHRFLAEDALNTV
SRPK2(h), sequence (P78362 whole entry): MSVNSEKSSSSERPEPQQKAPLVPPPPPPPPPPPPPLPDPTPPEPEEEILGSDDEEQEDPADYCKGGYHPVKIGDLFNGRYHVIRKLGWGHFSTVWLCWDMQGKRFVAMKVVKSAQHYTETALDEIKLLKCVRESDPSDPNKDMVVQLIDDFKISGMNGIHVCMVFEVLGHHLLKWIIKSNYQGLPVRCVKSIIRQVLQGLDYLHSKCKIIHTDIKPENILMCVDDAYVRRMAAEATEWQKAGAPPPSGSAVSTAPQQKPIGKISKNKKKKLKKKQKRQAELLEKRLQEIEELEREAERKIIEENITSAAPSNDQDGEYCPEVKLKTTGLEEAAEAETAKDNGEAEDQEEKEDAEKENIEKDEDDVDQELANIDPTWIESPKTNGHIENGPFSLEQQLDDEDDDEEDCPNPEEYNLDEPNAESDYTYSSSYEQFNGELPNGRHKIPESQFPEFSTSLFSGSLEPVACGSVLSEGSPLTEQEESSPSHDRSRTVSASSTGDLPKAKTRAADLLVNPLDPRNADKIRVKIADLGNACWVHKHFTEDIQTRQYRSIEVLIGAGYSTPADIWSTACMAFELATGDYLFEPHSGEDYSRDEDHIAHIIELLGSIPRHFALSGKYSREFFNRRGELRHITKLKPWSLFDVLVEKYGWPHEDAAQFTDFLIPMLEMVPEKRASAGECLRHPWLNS
MSSK1(h), sequence (Q9UPE1 whole entry): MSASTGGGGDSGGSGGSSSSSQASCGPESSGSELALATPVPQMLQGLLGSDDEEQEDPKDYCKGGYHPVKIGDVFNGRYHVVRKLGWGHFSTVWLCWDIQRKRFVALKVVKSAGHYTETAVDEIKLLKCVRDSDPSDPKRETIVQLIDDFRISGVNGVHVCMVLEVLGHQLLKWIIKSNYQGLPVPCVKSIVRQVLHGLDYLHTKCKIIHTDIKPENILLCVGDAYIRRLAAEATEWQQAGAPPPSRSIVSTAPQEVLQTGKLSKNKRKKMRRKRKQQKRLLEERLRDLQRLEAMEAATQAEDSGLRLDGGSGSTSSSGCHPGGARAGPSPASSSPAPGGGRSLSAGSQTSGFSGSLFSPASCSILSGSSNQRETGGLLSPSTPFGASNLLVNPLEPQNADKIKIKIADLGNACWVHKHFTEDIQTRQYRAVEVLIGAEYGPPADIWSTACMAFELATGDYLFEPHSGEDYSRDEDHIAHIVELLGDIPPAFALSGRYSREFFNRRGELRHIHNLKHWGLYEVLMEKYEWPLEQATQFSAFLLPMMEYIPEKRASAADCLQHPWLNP
CaMKIIβ(h), sequence (Q13554 whole entry): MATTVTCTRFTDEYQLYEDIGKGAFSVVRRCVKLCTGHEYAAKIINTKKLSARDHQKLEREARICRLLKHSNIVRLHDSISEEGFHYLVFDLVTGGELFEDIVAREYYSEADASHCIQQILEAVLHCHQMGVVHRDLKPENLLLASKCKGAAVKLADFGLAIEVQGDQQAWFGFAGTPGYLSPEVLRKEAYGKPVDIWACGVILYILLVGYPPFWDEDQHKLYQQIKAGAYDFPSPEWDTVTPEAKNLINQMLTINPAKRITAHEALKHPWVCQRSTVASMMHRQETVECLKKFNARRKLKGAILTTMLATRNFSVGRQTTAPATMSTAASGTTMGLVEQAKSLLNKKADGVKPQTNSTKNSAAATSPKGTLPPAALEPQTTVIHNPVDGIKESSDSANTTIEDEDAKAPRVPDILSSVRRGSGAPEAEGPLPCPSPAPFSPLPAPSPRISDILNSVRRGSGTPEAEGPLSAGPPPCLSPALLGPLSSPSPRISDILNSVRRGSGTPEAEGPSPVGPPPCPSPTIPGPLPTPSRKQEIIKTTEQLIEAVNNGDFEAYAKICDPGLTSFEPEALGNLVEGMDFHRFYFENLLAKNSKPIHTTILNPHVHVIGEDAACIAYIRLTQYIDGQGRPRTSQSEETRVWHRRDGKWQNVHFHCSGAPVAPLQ

Cc1cc2c(-c3ccc(NC(=O)[C@H](N)CC(C)(C)C)cc3C)ccnc2[nH]1 [Compound F-90, (2R)-2-Amino-4,4-dimethyl-N-[3-methyl-4-(2-methyl-1H-pyrrolo[2,3-b]pyridin-4-yl)phenyl]pentanamide]
% Activity (CK1ε(h)): 96%
% Activity (IRAK4(h)): 90%
% Activity (MSSK1(h)): 134%
% Activity (EphB2(h)): 96%
% Activity (MAPKAP-K3(h)): 125%
% Activity (CRIK(h)): 0%
IC50 (Citron kinase): 12 nM
% Activity (CLK3(h)): 107%
% Activity (DDR1(h)): 98%
% Activity (EphA7(h)): 114%
Kd [1]: 9.9 nM
IC50 ([1]; HEK293T cells transfected with NanoLuc-CITK, Tracer K10 1 μM, 2 hours): 53 nM
% Activity (RIPK2(h)): 97%
% Activity (CaMKIIβ(h)): 93%
% Activity (STK16(h)): 94%
% Activity (SRPK2(h)): 93%
% Activity (DNA-PK(h)): 107%
% Activity (PRKG2(h)): 110%
% Activity (Ros(h)): 97%
% Activity (Yes(h)): 87%
% Activity (JNK3(h)): 88%
% Activity [2]: 96%
